In patent US9974860B2, “Aqueous solution formulation and method for manufacturing same” (Akiko ITAI, priority 2013, dated 2018):
Where two headings read alike, the source gives them in different places.

Assays:
[1] = Pharmacokinetic study, intravenous administration of aqueous solution of Working Example 1; assay type: in vivo, Sprague-Daweley IGS rats; conditions: i.v.; for C0 / AUC(0-t): Sprague-Dawley IGS, rat, blood, iv, average of three; for AUC(0-t): read-out: AUC0-24
Description: The aqueous solution obtained in Working Example 1 was filtered and sterilized with Millex (registered trademark)-GV (0.22 μm; available from Millipore Japan Corporation/Merck Millipore Corporation) and intravenously administered to female and male Sprague-Daweley IGS rats (6 weeks old) to investigate the pharmacokinetics of Compound (I).
As groups of animals, female and male Sprague-Daweley IGS rats (available from Charles River Laboratories Japan, Inc.) were used. The rats were 6 weeks old. The male rats had body weights of 166 to 189 g, and the female rats had body weights of 123 to 145 g.
The rats were quarantined and acclimated in a SPF (specific pathogen free) laboratory for animal experimentations for seven days, and their states of health were simultaneously observed. Each of the rats was kept in a sterilized stainless cage. In the SPF laboratory for animal experimentations, the temperature was maintained at 20.6 to 22.5° C., and the relative humidity was maintained at 44 to 60%. In the SPF laboratory for animal experimentations, ventilation was provided fifteen times per hour. Regarding illumination in the SPF laboratory for animal experimentations, a bright state and a dark state were switched every 12 hours.
As foods for rats, a standard dry food in stick-shape (whose components were already analyzed) was used. As drinking water, tap water which was confirmed to be within a range of the reference value was used, and the rats were allowed to freely drink it.
The above-mentioned quarantined rats were randomly divided into the following three groups (four female rats and four male rats per group) by weight.
(1) Group 1: the aqueous solution obtained in Working Example 1 was administered in a dose of 1 mL/kg.
(2) Group 2: the aqueous solution obtained in Working Example 1 was administered in a dose of 2 mL/kg.
(3) Group 3: the aqueous solution obtained in Working Example 1 was administered in a dose of 3 mL/kg.
After the quarantined rats fasted overnight (for about 16 hours), the aqueous solution obtained in Working Example 1 was intravenously administered. Blood was collected 0.083 hours, 0.25 hours, 0.5 hours, 1 hour, 4 hours, and 24 hours after the administration, and the concentration of Compound (I) in the blood was measured. The maximum blood concentration, C0 (ng/mL), just after the composition for injection was intravenously administered, and the area under the blood concentration-time curve of Compound (I) over 0 to 24 hours after the administration, AUC0-24 (ng·h/mL), were calculated from the measured concentrations of Compound (I) in the blood at the collection times.

[2] = cited from earlier work
[3] = female rats, aqueous solution of Working Example 1, dose of Compound (I) 1 mg/kg (Group 1)
[4] = female rats, aqueous solution of Working Example 1, dose of Compound (I) 2 mg/kg (Group 2)
[5] = female rats, aqueous solution of Working Example 1, dose of Compound (I) 3 mg/kg (Group 3)
[6] = male rats, aqueous solution of Working Example 1, dose of Compound (I) 1 mg/kg (Group 1)
[7] = male rats, aqueous solution of Working Example 1, dose of Compound (I) 2 mg/kg (Group 2)
[8] = male rats, aqueous solution of Working Example 1, dose of Compound (I) 3 mg/kg (Group 3)

Compound O=C(Nc1cc(C(F)(F)F)cc(C(F)(F)F)c1)c1cc(Cl)ccc1O [Compound (I), N-[3,5-bis(trifluoromethyl)phenyl]-5-chloro-2-hydroxybenzamide] has a C0 [1, 3] of 2150 ng/mL, an AUC(0-t) [1, 3] of 388 ng·h/mL and a C0 [1, 4] of 2820 ng/mL. The AUC(0-t) [1, 4] was 540 ng·h/mL, the C0 [1, 5] was 5250 ng/mL and the AUC(0-t) [1, 5] was 981 ng·h/mL. For the same compound, the C0 [1, 6] was 1380 ng/mL, the AUC(0-t) [1, 6] was 304 ng·h/mL and the C0 [1, 7] was 3210 ng/mL. The AUC(0-t) [1, 7] was 620 ng·h/mL, the C0 [1, 8] was 4850 ng/mL and the AUC(0-t) [1, 8] was 1260 ng·h/mL. For the same compound, the “Exposure of Compound (I) in vivo” value ([1]; rats, aqueous solution of Working Example 1, 1 to 3 mL/kg) was “exposed in a dose-dependent manner and in a sufficient amount” and the Water solubility [2] was “poor water solubility”.
